Experimental data published in patent publication US9403813B2, “Azetidine amide derivatives as orexin receptor antagonists” (ACTELION PHARMACEUTICALS LTD, priority 2013, dated 2016).

What was measured:
[1] = biological target: human orexin-1 receptor (Homo sapiens (Human), UniProt O43613); test: Intracellular calcium measurements (FLIPR), antagonism of orexin-A response; assay type: cell-based; settings: CHO cells expressing human orexin-1 receptor, 3 nM orexin-A, geometric mean if determined several times, read-out: IC50 OX1
Chain of human orexin-1 receptor (O43613 whole entry): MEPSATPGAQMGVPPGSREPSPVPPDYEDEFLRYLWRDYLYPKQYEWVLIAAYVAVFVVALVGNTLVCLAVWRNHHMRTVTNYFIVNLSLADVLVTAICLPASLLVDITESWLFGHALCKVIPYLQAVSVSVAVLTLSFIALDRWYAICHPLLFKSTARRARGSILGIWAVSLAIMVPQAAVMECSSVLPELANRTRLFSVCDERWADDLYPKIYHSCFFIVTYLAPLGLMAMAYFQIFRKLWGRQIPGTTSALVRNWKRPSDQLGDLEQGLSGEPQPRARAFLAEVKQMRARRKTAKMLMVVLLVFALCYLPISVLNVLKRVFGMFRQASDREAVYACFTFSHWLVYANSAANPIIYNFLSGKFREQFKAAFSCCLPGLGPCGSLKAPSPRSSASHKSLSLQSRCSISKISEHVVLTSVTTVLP
Outline: (§1)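 CHO cells expressing human OX1 or OX2 receptor, loaded with fluo-4 AM plus probenecid, preincubated with antagonist 120 min before 3 nM orexin-A challenge. FLIPR calcium peak heights compared with agonist-plus-vehicle response. IC50 possibly normalized to on-plate reference; geometric mean of repeat determinations.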

[2] = biological target: human orexin-2 receptor (Homo sapiens (Human), UniProt O43614); test: as above; assay type: cell-based; settings: CHO cells expressing human orexin-2 receptor, 3 nM orexin-A, geometric mean if determined several times, read-out: IC50 OX2
Chain of human orexin-2 receptor (O43614 whole entry): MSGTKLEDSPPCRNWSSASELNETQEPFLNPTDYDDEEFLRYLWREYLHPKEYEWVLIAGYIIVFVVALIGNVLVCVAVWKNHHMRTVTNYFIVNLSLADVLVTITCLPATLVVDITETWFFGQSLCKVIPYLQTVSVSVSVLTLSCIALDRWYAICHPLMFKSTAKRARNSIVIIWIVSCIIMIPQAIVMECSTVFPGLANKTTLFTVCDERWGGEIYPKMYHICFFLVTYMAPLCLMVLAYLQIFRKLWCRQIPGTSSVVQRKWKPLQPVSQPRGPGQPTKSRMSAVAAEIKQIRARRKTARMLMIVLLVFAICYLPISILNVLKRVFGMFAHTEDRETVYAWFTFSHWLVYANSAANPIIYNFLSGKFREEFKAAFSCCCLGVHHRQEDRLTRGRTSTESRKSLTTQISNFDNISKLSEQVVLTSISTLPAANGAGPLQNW
Outline: as §1

With `COc1cc(C(=O)N2CC[C@H]2c2noc(-c3cccc(F)c3OC)n2)c(-n2nccn2)cc1C` [Example 88, {(S)-2-[5-(3-Fluoro-2-methoxy-phenyl)-[1,2,4]oxadiazol-3-yl]-azetidin-1-yl}-(5-methoxy-4-methyl-2-[1,2,3]triazol-2-yl-phenyl)-methanone] the IC50 [1] was 178 nM and the IC50 [2] was 0.6 nM.
`Cc1cc(C(=O)N2CC[C@H]2c2noc(-c3cccc(F)c3C)n2)c(-n2nccn2)cc1C` [Example 89, (4,5-Dimethyl-2-[1,2,3]triazol-2-yl-phenyl)-{(S)-2-[5-(3-fluoro-2-methyl-phenyl)-[1,2,4]oxadiazol-3-yl]-azetidin-1-yl}-methanone] showed an IC50 [1] of 82 nM and an IC50 [2] of 3 nM.
For `CCOc1ncccc1-c1nc([C@@H]2CCN2C(=O)c2cc(C)ccc2-n2nccn2)no1` [Example 90, {(S)-2-[5-(2-Ethoxy-pyridin-3-yl)-[1,2,4]oxadiazol-3-yl]-azetidin-1-yl}-(5-methyl-2-[1,2,3]triazol-2-yl-phenyl)-methanone], the IC50 [1] was 52 nM and the IC50 [2] was 2 nM.
Work on `CCOc1ncccc1-c1nc([C@@H]2CCN2C(=O)c2cc(C)c(C)cc2-n2nccn2)no1` [Example 91, (4,5-Dimethyl-2-[1,2,3]triazol-2-yl-phenyl)-{(S)-2-[5-(2-ethoxy-pyridin-3-yl)-[1,2,4]oxadiazol-3-yl]-azetidin-1-yl}-methanone] yielded an IC50 [1] of 17 nM and an IC50 [2] of 0.6 nM.
`CCOc1ncccc1-c1nc([C@@H]2CCN2C(=O)c2cc(OC)c(C)cc2-n2nccn2)no1` [Example 92, {(S)-2-[5-(2-Ethoxy-pyridin-3-yl)-[1,2,4]oxadiazol-3-yl]-azetidin-1-yl}-(5-methoxy-4-methyl-2-[1,2,3]triazol-2-yl-phenyl)-methanone] was tested, and the IC50 [1] was 37 nM and the IC50 [2] was 1 nM.
`Cc1ccc(-n2nccn2)c(C(=O)N2CC[C@H]2c2noc(-c3cccc(F)c3C)n2)c1` [Example 93, {(S)-2-[5-(3-Fluoro-2-methyl-phenyl)-[1,2,4]oxadiazol-3-yl]-azetidin-1-yl}-(5-methyl-2-[1,2,3]triazol-2-yl-phenyl)-methanone] showed an IC50 [1] of 655 nM and an IC50 [2] of 8 nM.
In the case of `COc1cc(C(=O)N2CC[C@H]2c2noc(-c3ccccc3OC(F)(F)F)n2)c(-n2nccn2)cc1Cl` [Example 94, (4-Chloro-5-methoxy-2-[1,2,3]triazol-2-yl-phenyl)-{(S)-2-[5-(2-trifluoromethoxy-phenyl)-[1,2,4]oxadiazol-3-yl]-azetidin-1-yl}-methanone], the IC50 [1] is reported as 326 nM and the IC50 [2] is reported as 11 nM.
`Cc1cc(-n2nccn2)c(C(=O)N2CC[C@H]2c2noc(-c3ccccc3OC(F)(F)F)n2)cc1Cl` [Example 95, (5-Chloro-4-methyl-2-[1,2,3]triazol-2-yl-phenyl)-{(S)-2-[5-(2-trifluoromethoxy-phenyl)-[1,2,4]oxadiazol-3-yl]-azetidin-1-yl}-methanone] gave an IC50 [1] of 60 nM and an IC50 [2] of 6 nM.
In the case of `COc1cc(C(=O)N2CC[C@H]2c2noc(-c3cccc(F)c3C)n2)c(-n2nccn2)cc1Cl` [Example 96, (4-Chloro-5-methoxy-2-[1,2,3]triazol-2-yl-phenyl)-{(S)-2-[5-(3-fluoro-2-methyl-phenyl)-[1,2,4]oxadiazol-3-yl]-azetidin-1-yl}-methanone], the IC50 [1] is reported as 306 nM and the IC50 [2] is reported as 3 nM.
Work on `CCOc1ncccc1-c1nc([C@@H]2CCN2C(=O)c2ccc(C)cc2-n2nccn2)no1` [Example 97, {(S)-2-[5-(2-Ethoxy-pyridin-3-yl)-[1,2,4]oxadiazol-3-yl]-azetidin-1-yl}-(4-methyl-2-[1,2,3]triazol-2-yl-phenyl)-methanone] yielded an IC50 [1] of 257 nM and an IC50 [2] of 10 nM.
`CCOc1ncccc1-c1nc([C@@H]2CCN2C(=O)c2cc(OC)c(Cl)cc2-n2nccn2)no1` [Example 98, (4-Chloro-5-methoxy-2-[1,2,3]triazol-2-yl-phenyl)-{(S)-2-[5-(2-ethoxy-pyridin-3-yl)-[1,2,4]oxadiazol-3-yl]-azetidin-1-yl}-methanone] gave an IC50 [1] of 83 nM and an IC50 [2] of 1 nM.
In the case of `CCOc1ncccc1-c1nc([C@@H]2CCN2C(=O)c2cc(Cl)c(C)cc2-n2nccn2)no1` [Example 99, (5-Chloro-4-methyl-2-[1,2,3]triazol-2-yl-phenyl)-{(S)-2-[5-(2-ethoxy-pyridin-3-yl)-[1,2,4]oxadiazol-3-yl]-azetidin-1-yl}-methanone], the IC50 [1] is reported as 20 nM and the IC50 [2] is reported as 1 nM.
For `Cc1c(Cl)cccc1-c1nc([C@@H]2CCN2C(=O)c2ccccc2-n2nccn2)no1` [Example 100, {(S)-2-[5-(3-Chloro-2-methyl-phenyl)-[1,2,4]oxadiazol-3-yl]-azetidin-1-yl}-(2-[1,2,3]triazol-2-yl-phenyl)-methanone], the IC50 [1] was 820 nM and the IC50 [2] was 34 nM.
Work on `Cc1ccc(-n2nccn2)c(C(=O)N2CC[C@H]2c2noc(-c3cccc(Cl)c3C)n2)c1` [Example 101, {(S)-2-[5-(3-Chloro-2-methyl-phenyl)-[1,2,4]oxadiazol-3-yl]-azetidin-1-yl}-(5-methyl-2-[1,2,3]triazol-2-yl-phenyl)-methanone] yielded an IC50 [1] of 88 nM and an IC50 [2] of 8 nM.
`Cc1cc(C(=O)N2CC[C@H]2c2noc(-c3cccc(Cl)c3C)n2)c(-n2nccn2)cc1C` [Example 102, {(S)-2-[5-(3-Chloro-2-methyl-phenyl)-[1,2,4]oxadiazol-3-yl]-azetidin-1-yl}-(4,5-dimethyl-2-[1,2,3]triazol-2-yl-phenyl)-methanone] showed an IC50 [1] of 41 nM and an IC50 [2] of 2 nM.
In the case of `COc1cc(C(=O)N2CC[C@H]2c2noc(-c3cccc(Cl)c3C)n2)c(-n2nccn2)cc1C` [Example 103, {(S)-2-[5-(3-Chloro-2-methyl-phenyl)-[1,2,4]oxadiazol-3-yl]-azetidin-1-yl}-(5-methoxy-4-methyl-2-[1,2,3]triazol-2-yl-phenyl)-methanone], the IC50 [1] is reported as 59 nM and the IC50 [2] is reported as 2 nM.
`COc1cc(C(=O)N2CC[C@H]2c2noc(-c3cccc(Cl)c3C)n2)c(-n2nccn2)cc1Cl` [Example 104, (4-Chloro-5-methoxy-2-[1,2,3]triazol-2-yl-phenyl)-{(S)-2-[5-(3-chloro-2-methyl-phenyl)-[1,2,4]oxadiazol-3-yl]-azetidin-1-yl}-methanone] showed an IC50 [1] of 181 nM and an IC50 [2] of 2 nM.
In the case of `Cc1cc(-n2nccn2)c(C(=O)N2CC[C@H]2c2noc(-c3cccc(Cl)c3C)n2)cc1Cl` [Example 105, {(S)-2-[5-(3-Chloro-2-methyl-phenyl)-[1,2,4]oxadiazol-3-yl]-azetidin-1-yl}-(5-chloro-4-methyl-2-[1,2,3]triazol-2-yl-phenyl)-methanone], the IC50 [1] is reported as 122 nM and the IC50 [2] is reported as 5 nM.
`Cc1ccc(C(=O)N2CC[C@H]2c2noc(-c3cccc(Cl)c3C)n2)c(-n2nccn2)c1` [Example 106, {(S)-2-[5-(3-Chloro-2-methyl-phenyl)-[1,2,4]oxadiazol-3-yl]-azetidin-1-yl}-(4-methyl-2-[1,2,3]triazol-2-yl-phenyl)-methanone] was tested, and the IC50 [1] was 330 nM and the IC50 [2] was 9 nM.
Compound `Cc1c(Cl)cccc1-c1nc([C@@H]2CCN2C(=O)c2ccc(Cl)cc2-n2nccn2)no1` [Example 107, {(S)-2-[5-(3-Chloro-2-methyl-phenyl)-[1,2,4]oxadiazol-3-yl]-azetidin-1-yl}-(4-chloro-2-[1,2,3]triazol-2-yl-phenyl)-methanone] has an IC50 [1] of 317 nM and an IC50 [2] of 13 nM.
`Cc1c(Cl)cccc1-c1nc([C@@H]2CCN2C(=O)c2ccc(C(F)(F)F)cc2-n2nccn2)no1` [Example 108, {(S)-2-[5-(3-Chloro-2-methyl-phenyl)-[1,2,4]oxadiazol-3-yl]-azetidin-1-yl}-(2-[1,2,3]triazol-2-yl-4-trifluoromethyl-phenyl)-methanone] gave an IC50 [1] of 759 nM and an IC50 [2] of 28 nM.
`COc1c(Cl)cccc1-c1nc([C@@H]2CCN2C(=O)c2cc(C)ccc2-n2nccn2)no1` [Example 109, {(S)-2-[5-(3-Chloro-2-methoxy-phenyl)-[1,2,4]oxadiazol-3-yl]-azetidin-1-yl}-(5-methyl-2-[1,2,3]triazol-2-yl-phenyl)-methanone] was tested, and the IC50 [1] was 132 nM and the IC50 [2] was 3 nM.
With `COc1c(Cl)cccc1-c1nc([C@@H]2CCN2C(=O)c2cc(C)c(C)cc2-n2nccn2)no1` [Example 110, {(S)-2-[5-(3-Chloro-2-methoxy-phenyl)-[1,2,4]oxadiazol-3-yl]-azetidin-1-yl}-(4,5-dimethyl-2-[1,2,3]triazol-2-yl-phenyl)-methanone] the IC50 [1] was 46 nM and the IC50 [2] was 1 nM.
Work on `COc1cc(C(=O)N2CC[C@H]2c2noc(-c3cccc(Cl)c3OC)n2)c(-n2nccn2)cc1C` [Example 111, {(S)-2-[5-(3-Chloro-2-methoxy-phenyl)-[1,2,4]oxadiazol-3-yl]-azetidin-1-yl}-(5-methoxy-4-methyl-2-[1,2,3]triazol-2-yl-phenyl)-methanone] yielded an IC50 [1] of 82 nM and an IC50 [2] of 0.7 nM.
For `COc1cc(C(=O)N2CC[C@H]2c2noc(-c3cccc(Cl)c3OC)n2)c(-n2nccn2)cc1Cl` [Example 112, {(S)-2-[5-(3-Chloro-2-methoxy-phenyl)-[1,2,4]oxadiazol-3-yl]-azetidin-1-yl}-(4-chloro-5-methoxy-2-[1,2,3]triazol-2-yl-phenyl)-methanone], the IC50 [1] was 70 nM and the IC50 [2] was 1 nM.
Compound `COc1c(Cl)cccc1-c1nc([C@@H]2CCN2C(=O)c2cc(Cl)c(C)cc2-n2nccn2)no1` [Example 113, {(S)-2-[5-(3-Chloro-2-methoxy-phenyl)-[1,2,4]oxadiazol-3-yl]-azetidin-1-yl}-(5-chloro-4-methyl-2-[1,2,3]triazol-2-yl-phenyl)-methanone] has an IC50 [1] of 51 nM and an IC50 [2] of 1 nM.
`Cc1ccc(-c2ccccc2)c(C(=O)N2CC[C@H]2c2noc(-c3cccc(Cl)c3C)n2)c1` [Example 114, {(S)-2-[5-(3-Chloro-2-methyl-phenyl)-[1,2,4]oxadiazol-3-yl]-azetidin-1-yl}-(4-methyl-biphenyl-2-yl)-methanone] was tested, and the IC50 [1] was 26 nM and the IC50 [2] was 2 nM.
